Test results published in ChEMBL document CHEMBL1158100, “Sesquiterpenes from Thapsia nitida var. meridionalis and Thapsia nitida var. nitida” (J Nat Prod, 2006).
Activity calls are given as the source filed them. The rule behind the calls is not given here.

Experiment: Inhibition of sarcoplasmic/endoplasmic reticulum calcium ATPase at upto 10 uM

Activity, inactive:
C=C1C(=O)O[C@@H]2[C@H]1CC[C@]1(C)[C@@H]3O[C@@H]3[C@H](OC(=O)C=C(C)C)C(=C)[C@@H]21

Experiment: Inhibition of sarcoplasmic/endoplasmic reticulum calcium ATPase at upto 100 uM

Activity, inactive:
C/C=C(/C)C(=O)O[C@]1(C)C(=O)O[C@H]2[C@@H]3C(C)=CC[C@@H]3[C@@](C)(O)CC[C@H]21, C=C1CC[C@@H]2[C@@H](OC(=O)[C@@]2(C)OC(=O)/C(C)=C\C)[C@H]2[C@@H]1C[C@@H](OC(C)=O)[C@@]2(C)O, C=C1CC[C@@H]2[C@@H](OC(=O)[C@@]2(C)OC(=O)/C(C)=C\C)[C@@H]2C(C)=CC[C@H]12, C=C1C(=O)O[C@@H]2[C@H]1CC[C@]1(C)[C@@H]3O[C@@H]3[C@H](OC(=O)CC(C)C)C(=C)[C@@H]21, C=C1CC[C@@H]2[C@@H](OC(=O)[C@@]2(C)OC(=O)/C(C)=C/C)[C@H]2[C@@H]1C[C@@H](OC(C)=O)[C@@]2(C)O, C=C1C(=O)O[C@@H]2[C@H]1CC[C@]1(C)[C@@H]3O[C@@H]3[C@H](OC(=O)C=C(C)C)C(=C)[C@@H]21
